Data as given in patent US11149021B2, “N-(azaaryl)cyclolactam-1-carboxamide derivative, preparation method therefor, and use thereof” (Abbisko Therapeutics Co., Ltd., priority 2017, dated 2021).
Where two headings read alike, the source gives them in different places.

Experiments:
[1] = tested on: M-NFS-60 mouse myeloid leukemia lymphocytes; assay: CSF-1R cell proliferation study (Cell Titer Glo); type: cell-based; conditions: Lymphocyte, 72 h;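 further: M-CSF-driven proliferation, viable cells quantified as ATP by luminescence, compounds tested as 3-fold serial dilutions, values from four-parameter curve fits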
CSF-1R = target: T1, CSF-1R (Homo sapiens, UniProt P07333); assay: CSF-1R in vitro biochemical kinase study (ADP-Glo assay)
T1 construct: 3.95 nM of CSF-1R, 500 μM of ATP
T1 sequence (P07333 20-972): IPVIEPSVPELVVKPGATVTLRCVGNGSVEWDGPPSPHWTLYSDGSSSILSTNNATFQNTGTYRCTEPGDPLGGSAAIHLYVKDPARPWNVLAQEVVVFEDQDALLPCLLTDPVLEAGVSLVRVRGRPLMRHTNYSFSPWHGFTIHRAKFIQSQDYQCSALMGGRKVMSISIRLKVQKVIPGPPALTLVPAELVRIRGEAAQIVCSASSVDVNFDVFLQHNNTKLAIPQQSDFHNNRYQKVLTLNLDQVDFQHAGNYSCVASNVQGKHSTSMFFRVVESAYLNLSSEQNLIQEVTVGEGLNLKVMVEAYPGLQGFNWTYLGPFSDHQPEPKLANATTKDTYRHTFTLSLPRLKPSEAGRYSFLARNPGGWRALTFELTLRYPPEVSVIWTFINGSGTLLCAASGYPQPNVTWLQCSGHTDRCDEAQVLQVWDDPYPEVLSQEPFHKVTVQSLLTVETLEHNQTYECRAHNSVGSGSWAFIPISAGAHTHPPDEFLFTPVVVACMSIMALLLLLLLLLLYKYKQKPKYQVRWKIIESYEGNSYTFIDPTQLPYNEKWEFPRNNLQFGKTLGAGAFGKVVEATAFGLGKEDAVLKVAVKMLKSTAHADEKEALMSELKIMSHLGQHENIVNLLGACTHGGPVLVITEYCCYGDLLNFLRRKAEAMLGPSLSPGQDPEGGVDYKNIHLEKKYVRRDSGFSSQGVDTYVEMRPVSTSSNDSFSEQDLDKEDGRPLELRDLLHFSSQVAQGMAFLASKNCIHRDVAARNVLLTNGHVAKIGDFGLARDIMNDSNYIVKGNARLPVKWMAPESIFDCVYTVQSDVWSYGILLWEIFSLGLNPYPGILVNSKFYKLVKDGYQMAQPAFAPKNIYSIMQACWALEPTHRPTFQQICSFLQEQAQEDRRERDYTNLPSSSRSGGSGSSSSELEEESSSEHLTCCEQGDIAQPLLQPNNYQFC

[2] = M-NFS-60 cells, M-CSF, 3 days, CTG, * = average of multiple tests, read-out: Cytological experiment CSF-1R IC50
[3] = M-NFS-60 cells, M-CSF, 3 days, CTG, absolute half maximal inhibition, * = average of multiple tests, read-out: Cytological experiment CS1-1R Absolute IC50
[4] = read-out: Cytological experiment CS1-1R Absolute IC50 (nM)
[5] = read-out: Cytological experiment CSF-1R IC50 (nM)

| SMILES | IC50 [1, 2] [nM] | IC50 [1, 3] [nM] | IC50 [1, 4] [nM] | IC50 [1, 5] [nM] | IC50 (CSF-1R) [nM] |
| --- | --- | --- | --- | --- | --- |
| Cc1nc(NC(=O)N2CCC(C)(C)C2=O)ccc1Oc1ccnc(-c2cnn(C3COC3)c2)c1 [Example 18, 3,3-dimethyl-N-(6-methyl-5-((2-(1-(oxetan-3-yl)-1H-pyrazol-4-yl)pyridin-4-yl)oxy)pyridin-2-yl)-2-oxopyrrolidine-1-carboxamide] | 125 | 114 |  |  |  |
| Cc1nc(NC(=O)N2CCC(C)(C)C2=O)ccc1Oc1ccnc(-c2cn[nH]c2)c1 [Example 9, N-(5-((2-(1H-pyrazol-4-yl)pyridin-4-yl)oxy)-6-methylpyridin-2-yl)-3,3-dimethyl-2-oxopyrrolidine-1-carboxamide] |  |  | 193 | 216 | 80.2 |
| Cc1nc(NC(=O)N2CCC(C)(C)C2=O)ccc1Oc1ccnc(NC(=O)N2CCN(C)CC2)c1 [Example 24, N-(4-((6-(3,3-dimethyl-2-oxopyrrolidine-1-carboxamido)-2-methylpyridin-3-yl)oxy)pyridin-2-yl)-4-methylpiperazine-1-carboxamide] |  |  | 164 | 221 | 56.6 |
| Cc1nc(NC(=O)N2CCC(C)(C)C2=O)ccc1Oc1ccnc(-c2cnn([C@H]3CCOC3)c2)c1 [Example 12, (S)-3,3-dimethyl-N-(6-methyl-5-((2-(1-(tetrahydrofuran-3-yl)-1H-pyrazol-4-yl)pyridin-4-yl)oxy)pyridin-2-yl)-2-oxopyrrolidine-1-carboxamide] |  |  | 134 | 158 | 71.7 |
| Cc1nc(NC(=O)N2CCC(C)(C)C2=O)ccc1Oc1ccnc(NC(=O)C2CCN(C)CC2)c1 [Example 25, N-(4-((6-(3,3-dimethyl-2-oxopyrrolidine-1-carboxamido)-2-methylpyridin-3-yl)oxy)pyridin-2-yl)-1-methylpiperidine-4-carboxamide] |  |  | 1990 | 1920 | 1120 |
| Cc1nc(NC(=O)N2CCC(C)(C)C2=O)ccc1Oc1ccnc(-c2cnn(CC(C)(C)O)c2)c1 [Example 16, N-(5-((2-(1-(2-hydroxy-2-methylpropyl)-1H-pyrazol-4-yl)pyridin-4-yl)oxy)-6-methylpyridin-2-yl)-3,3-dimethyl-2-oxopyrrolidine-1-carboxamide] |  |  |  |  | 230 |
| Cc1nc(NC(=O)N2CCC(C)(C)C2=O)ccc1Oc1ccnc(-c2cnn(C3CCN(C)C3)c2)c1 (stereo not shown) [Example 17] |  |  |  |  | 101 |

Other lines, results leading:

| IC50 [1, 2] [nM] | IC50 [1, 3] [nM] | IC50 [1, 4] [nM] | IC50 [1, 5] [nM] | IC50 (CSF-1R) [nM] | SMILES |
| --- | --- | --- | --- | --- | --- |
|  |  | 140 | 141 | 207 | COCCC1(C)CCN(C(=O)Nc2ccc(Oc3ccnc(-c4cnn(C)c4)c3)c(C)n2)C1=O (stereo not shown) [Example 37, 3-(2-methoxyethyl)-3-methyl-N-(6-methyl-5-((2-(1-methyl-1H-pyrazol-4-yl)pyridine-4-yl)oxy)pyridin-2-yl)-2-oxopyrrolidine-1-carboxamide] |
|  |  | 782 | 667 | 324 | Cc1nc(NC(=O)N2CCC(C)C2=O)ccc1Oc1ccnc(-c2cnn(C)c2)c1 (stereo not shown) [Example 32, 3-methyl-N-(6-methyl-5-((2-(1-methyl-1H-pyrazol-4-yl)pyridin-4-yl)oxy)pyridin-2-yl)-2-oxopyrrolidine-1-carboxamide] |
|  |  |  |  | 1470 | Cc1nc(NC(=O)N2CCCC2=O)ccc1Oc1ccnc(-c2cnn(C)c2)c1 [Example 38, N-(6-methyl-5-((2-(1-methyl-1H-pyrazol-4-yl)pyridin-4-yl)oxy)pyridin-2-yl)-2-oxopyrrolidine-1-carboxamide] |
|  |  | 1160 | 1380 | 98.3 | CCCC1(CCC)CCN(C(=O)Nc2ccc(Oc3ccnc(-c4cnn(C)c4)c3)c(C)n2)C1=O [Example 30, N-(6-methyl-5-((2-(1-methyl-1H-pyrazol-4-yl)pyridin-4-yl)oxy)pyridin-2-yl)-2-oxo-3,3-dipropylpyrrolidine-1-carboxamide] |
| 500 | 727 |  |  |  | Cc1nc(NC(=O)N2CCC(C)(OCc3ccccc3)C2=O)ccc1Oc1ccnc(-c2cnn(C)c2)c1 (stereo not shown) [Example 36, 3-(benzyloxy)-3-methyl-N-(6-methyl-5-((2-(1-methyl-1H-pyrazol-4-yl)pyridin-4-yl)oxy)pyridin-2-yl)-2-oxopyrrolidine-1-carboxamide] |
